Laboratory results: patent publication US10004715B2, “Entacapone for prevention and treatment of atherosclerosis” (National Institute of Biological Sciences, Beijing, priority 2012, dated 2018)
pIC50: −log10 of the molar value.

Legend:
FTO protein = FTO protein (Homo sapiens, UniProt Q9C0B1); test: FTO demethylation assay (enzymatic inhibition); type: biochemical; details: substrate 0.5 μM, enzyme 0.1 μM; ssDNA with N6-mA; HPLC-MS/MS; read-out: IC50 against FTO
Method: We measured the compound's inhibition activity in the demethylation reaction catalyzed by FTO. The assay was performed in 100 μl of reaction system containing 50 mM HEPES buffer (pH=7.0), 100 μM of a-KG, 100 μM of (NH4)2Fe(SO4)2, 1 mM of L-ascorbic acid, 50 ng/ml of BSA, 0.5 μM of ssDNA with N^6-mA (5′-ATTGTCA(m^6A)CAGCAGA-3′), and 0.1 μM of FTO protein. The reaction system was incubated at 37° C. for 2 h and stopped by heating at 95° C. for […] ssDNA was digested by nuclease P1 and alkaline phosphatase. The concentrations of N^6-mA and A were analyzed by HPLC-MS/MS. When concentration of substrate and enzyme are 0.5 μM and 0.1 μM, respectively, the measured IC50 value of entacapone against FTO is ˜9 μM (FIG. 2).

[1] = tested on: obese male C57BL/6 mice fed with high-fat diet; test: In vivo anti-obesity efficacy in obese mice; set-up: species or system mouse; details: 300 mg/kg orally blended with diet, after 13 weeks; p<0.05
Method: Male C57BL/6 mice were fed with high-fat diet (45% fat, OpenSource Diets D12451) for 8 weeks. Then obese mice with body weight 20% larger than that of mice fed with normal diet (20 mice) were selected for experiments. Entacapone (300 mg/kg) was orally administered to 10 randomly selected obese mice by blending with diet. After 13 weeks, the mean body weight gain of drug treatment group was about 11% less than that of control group (*p-value<0.05) (FIG. 9).

[2] = tested on: Ldlr−/− mice fed western style diet; test: Atherosclerosis model: Ldlr-deficient mice; type: in vivo, mouse; details: 300 mg/kg orally blended with diet, after 8 weeks; Oil red O staining; p-value=0.08
Method: Atherosclerosis Model: Ldlr-Deficient Mice. We measured entacapone's anti-atherosclerosis efficacy using Ldlr^−/− mice fed western style diet (20% fat, 0.15% cholesterol), entacapone (300 mg/kg) was orally administered by blending with diet. After 8 weeks, the mean lesion area in aortic sinuses of drug treatment group was 28% less than that of control group (p-value=0.08) (FIG. 8). Therefore, entacapone reduces atherosclerosis symptom, comparing with the control.

[3] = tested on: male wistar rats fed with high-fat diet; test: In vivo anti-obesity efficacy in rats fed high-fat diet; set-up: species or system rat; details: 85.6 mg/day by gavage
Method: Total of 23 male wistar rats (6 weeks) were fed with high-fat diet (45% fat, OpenSource Diets D12451), and entacapone (85.6 mg/day) was administered to 12 randomly selected rats by gavage. After 8 weeks, the mean body weight of drug treatment group was about 11% less than that of control group (*p-value<0.05) (FIG. 4).

Huh-7 cell line = test: Cellular triglyceride synthesis inhibition; type: cell-based; details: Homo sapiens, dyeing method
Description: FIG. 3. The dose-dependent inhibition activity of entacapone on triglyceride synthesis in Huh-7 cell line. The X-axis is the compound concentration. The Y-axis is “read-out” of the triglyceride concentration using dyeing method.

Chain of FTO protein (Q9C0B1 whole entry): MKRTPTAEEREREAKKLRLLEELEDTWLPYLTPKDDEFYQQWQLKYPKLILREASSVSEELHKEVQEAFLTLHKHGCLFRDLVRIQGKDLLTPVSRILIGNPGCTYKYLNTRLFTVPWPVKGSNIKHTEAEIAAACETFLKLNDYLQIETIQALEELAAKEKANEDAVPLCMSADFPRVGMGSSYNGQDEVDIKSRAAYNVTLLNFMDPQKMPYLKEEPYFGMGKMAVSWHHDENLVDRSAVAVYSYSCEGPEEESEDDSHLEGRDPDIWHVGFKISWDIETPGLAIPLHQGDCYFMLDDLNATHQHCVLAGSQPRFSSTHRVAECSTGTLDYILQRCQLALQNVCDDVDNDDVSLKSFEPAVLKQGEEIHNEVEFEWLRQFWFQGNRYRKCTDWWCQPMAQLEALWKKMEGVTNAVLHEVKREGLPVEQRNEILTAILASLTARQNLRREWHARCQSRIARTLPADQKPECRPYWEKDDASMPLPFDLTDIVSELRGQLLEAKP

Compound: CCN(CC)C(=O)/C(C#N)=C/c1cc(O)c(O)c([N+](=O)[O-])c1 [entacapone, (2E)-2-cyano-3-(3,4-dihydroxy-5-nitrophenyl)-N,N-diethylprop-2-enamide]
- pIC50 (FTO protein): ~5.05
- mean body weight gain less than that of control group [1]: about 11%
- mean lesion area in aortic sinuses less than that of control group [2]: 28%
- mean body weight less than that of control group ([3]; after 8 weeks, high-fat diet, p<0.05): about 11%
- decrease of LDL-c in serum compared to control group ([3]; after 8 weeks, p<0.005): about 40%
- adipose tissue change vs control (H&E staining) ([3]; high-fat diet): reduced size of adipose cells
- body-weight-normalized food intake vs control group ([3]; high-fat diet): no difference
- hepatic tissue change vs control (H&E staining) ([3]; high-fat diet): reduced level of liver steatosis
- Difference in serum LDL-cholesterol (drug treatment vs control group) ([3]; rat serum, p-value 0.0005): −41.2%
- Difference in serum Creatine kinase (drug treatment vs control group) ([3]; rat serum, p-value 0.2311): −17.6%
- Difference in serum Glutamic-pyruvic transaminase (drug treatment vs control group) ([3]; rat serum, p-value 0.4962): −5.5%
- Difference in serum Bilirubin (drug treatment vs control group) ([3]; rat serum, p-value 0.5814): −10.1%
- Difference in serum Cholesterol (drug treatment vs control group) ([3]; rat serum, p-value 0.6455): −3.3%
- Difference in serum Triglyceride (drug treatment vs control group) ([3]; rat serum, p-value 0.8023): −3.8%
- Difference in serum Albumin ratio (drug treatment vs control group) ([3]; rat serum, p-value 0.9473): −0.063%
- Difference in serum HDL-cholesterol (drug treatment vs control group) ([3]; rat serum, p-value 0.9972): −0.026%
- pIC50 (Huh-7 cell line): ~4.82
